One data set concerns total serum testosterone. Put plainly: Testosterone elevation: total serum testosterone in a random, double-blind, parallel group, placebo-controlled study. Format: in vivo, men. The method, then:
In a random, double-blind, parallel group, placebo-controlled study, 3-{1-[4-(2-dimethylamino-ethoxy)-phenyl]-2-phenyl-but-enyl}-phenol was administered to men, aged 72 to 84 with below average serum testosterone levels. Subjects received either placebo or 3-{1-[4-(2-dimethylamino-ethoxy)-phenyl]-2-phenyl-but-enyl}-phenol as a sequential escalating dose, with subjects receiving 20 mg daily for the first month, 40 mg daily for the second month, and 60 mg daily for the final four months (remainder) of the study. Total serum testosterone was determined in the subjects at 4 weeks and at 2, 3 and 6 months.

In general, melting point refers to the temperature of the solid-liquid transition. In turn, `CCCOc1ncc(C(C)=O)cc1-c1nc2c(CC)n(C3CN(C(C)C)C3)nc2c(=O)[nH]1` had a melting point of 162.8 to 163.6 °C.
`CCC(=C(c1ccc(OCCN(C)C)cc1)c1cccc(O)c1)c1ccccc1` [Treatment Compound, 3-{1-[4-(2-dimethylamino-ethoxy)-phenyl]-2-phenyl-but-enyl}-phenol]: the “Mean Percent Change From Baseline in Testosterone” value with total serum testosterone (2 Months, men aged 72 to 84, escalating dose, 40 mg daily for the second month) is on record as 44.45%; with total serum testosterone (3 Months, men aged 72 to 84, escalating dose, 60 mg daily for the final four months) it was 41.47%; in the data set with total serum testosterone (6 Months, men aged 72 to 84, escalating dose, 60 mg daily for the final four months), 45.19%; with total serum testosterone (Week 4, men aged 72 to 84 with below average serum testosterone, 20 mg daily for the first month) it was 36.20%. The “total serum testosterone versus subjects receiving placebo during the study” value with total serum testosterone (men aged 72 to 84, 20/40/60 mg daily escalating dose over 6 months, p=0.026) was “significant increase”.
